Experimental data taken from US9034906B2, “EP4 agonist” (Asahi Glass Company, Limited, priority 2008, dated 2015).

Legend:
[1] = tested on: concanavalin A-induced hepatitis; assay: Concanavalin A-induced hepatitis model in mice, prophylactic; format: in vivo, mouse; conditions: BALB/c mice, oral 1 hr before Con A; compound F 1 mg/10 mL/kg, prednisolone 5 mg/10 mL/kg
Method: The prophylactic effect of compound F on hepatitis was investigated using concanavalin A (hereinafter Con A)-induced hepatitis model.
BALB/c mice (female, 7 weeks old, Japan SLC) were purchased, acclimated for 1 week and used for the study. Except the no-induction group, Con A (type IV, Sigma-Aldrich) dissolved in saline was administered from the tail vein of the mice at a dose of 12.5 mg/10 mL/kg to induce hepatitis. Twenty hr later, the mice were subjected to laparotomy under ether anesthesia. A 0.5 mL of blood sample was collected from the caudal vena cava and heparinized plasma was obtained to measure plasma ALT and AST activities. Test substances were compound F (1 mg/10 mL solution), prednisolone (Nacalai Tesque, 5 mg/10 mL suspension (with 0.5 w/v % methylcellulose)) and water for injection (administered to the control group), which were orally administered at a volume of 10 mL/kg 1 hr before Con A injection. Seven to 9 animals were used for each group. After logarithmic transformation of the data, one-way analysis of variance was performed for statistical evaluation.

[2] = tested on: ethanol-induced gastric mucosal injury; assay: Ethanol-induced gastric mucosal injury model in rats; format: in vivo, rat; conditions: SD rats, 30 min before ethanol
From the text: The suppressive effect of compound F on gastric mucosal injury was investigated in ethanol-induced gastric mucosal injury model in rats. This model is frequently used as an animal model of human acute gastritis associated with congestive mucosal injury (Reference K).
Male SD rats (7 weeks old, Charles River) were purchased through Oriental BioService Inc., acclimated for 1 week and used for the study. The rats were grouped based on the body weight, placed in a clean cage set with a wire mesh floor one day before the study, fasted for 19 hr (without water for last 3 hr), and orally administered with ethanol (special grade, Nacalai Tesque, Lot No. V8A5862, 1.5 mL) in all groups to induce gastric mucosal injury. Compound F was orally administered at doses of 0.01, 0.1 and 1 mg/kg 30 min before induction of gastric mucosal injury at a volume of 5 mL/kg. To the control group was orally administered a solvent (1 vol % ethanol solution) at 5 mL/kg in the same manner. Eight animals were used for each group.
The rats were bled to death from the abdominal aorta and caudal vena cava under ether anesthesia after 1 hr from the ethanol administration, and the stomach was isolated. […] The length and width of each ulcer were measured under a stereomicroscope, the area was calculated, and the sum thereof was taken as the total ulcer area.

T cell transfer colitis = assay: CD4+CD25- T cell transfer colitis model in mice; format: in vivo, mouse; conditions: C.B-17/Icr-scid mice, oral 1 mg/kg once a day
From the text: The effect on Crohn's disease, another type of inflammatory bowel disease, was studied. T cell transfer model is well known as a Crohn's disease model, which develops chronic […] or enteritis (see: References F, G, H). In addition, it can also be regarded as an animal model of intestinal Behcet's disease or simple ulcer, suffering from similar intestinal ulcer accompanied by activation of T cells (see: References I, J).
Female BALB/cA Jcl mice, 6 weeks old, body weight 19-23 g (CLEA Japan, Inc.) and female C.B-17/Icr-scid mice (6 weeks old, CLEA Japan, Inc.) were purchased, acclimated for 1 week and used for the study.
After laparotomy under ether anesthesia, BALB/cA Jcl mice were exsanguinated to death through the abdominal aorta and caudal vena cava, and the spleen was isolated. Splenocytes were prepared from the spleen and then CD4^+CD25^− T cells were prepared with a CD4^+ T cell Isolation Kit (No. 130-090-860, Milky Biotech Co., Ltd.) and CD25-Biotin antibody (No. 130-092-569, Milky Biotech Co., Ltd.). The cells were separated using the autoMACS Separator (Milky Biotech Co., Ltd.). The separated CD4^+CD25^− T cells were suspended in physiological phosphate buffer solution, and 2.5×10^5 cells per animal were intraperitoneally administered to C.B-17/Icr-scid mice to induce colitis.
One mg/kg of compound F or prednisolone was initially administered at 5 hr before transfer of CD4^+CD25^− T cells, and orally administered thereafter once a day, daily, for 20 days. To the control group was orally administered a solvent (1 vol % ethanol solution) at 10 mL/kg. A clinical endpoint was the sum of stool consistency score (0-5), fecal occult blood score (0-4) and body weight decrease score (0-5), termed as the Disease Activity Index score (hereinafter to be abbreviated as DAI score: highest score 14). The stool consistency score was graded for the hardness of stool as normal (0), slightly loose (1), somewhat loose (2), loose (3), considerably loose (4) and diarrhea (5). The fecal occult blood score was evaluated in the same manner as in Example 23. The body weight decrease score was graded for the changes in the body weight as increase (0), decrease of less than 3% (1), decrease of not less than 3% and less than 6% (2), decrease of not less than 6% and less than 9% (3), decrease of not less than 9% and less than 12% (4), and decrease of not less than 12% (5). Eight to 10 mice were used for each group and the results were expressed as average.

## Cc1cccc([C@@H](C)[C@H](O)/C=C/[C@@H]2[C@@H]3[C@H](C[C@H]2O)O/C(=C\CCCc2nnn[nH]2)C3(F)F)c1 [Compound F, 4-[(Z)-(1S,5R,6R,7R)-6-[(1E,3R,4R)-3-hydroxy-4-(m-tolyl)-1-pentenyl]-7-hydroxy-2-oxa-4,4-difluoro-bicyclo[3.3.0]octan-3-ylidene]-1-(tetrazol-5-yl)butane]
[1]
  Effect on increase of plasma ALT and plasma AST activities: significantly and strongly suppressed the increase
[2]; oral 1 mg/kg
  Effect on total ulcer area (stomach): almost completely reduced the area
[2]; oral, from 0.01 mg/kg (0.01, 0.1 and 1 mg/kg)
  Effect on total ulcer area (stomach): significantly reduced the total ulcer area in a dose-dependent manner
T cell transfer colitis
  DAI score: comprehensively superior to prednisolone
  Effect on body weight decrease score: prevented the increase in the body weight decrease score almost completely
  Effect on fecal occult blood score: suppressed the increases in both the stool consistency score and the fecal occult blood score by almost half
  Effect on stool consistency score: suppressed the increases in both the stool consistency score and the fecal occult blood score by almost half
